# Test: Visual inspection for cloudiness (turbidity) and precipitation
# Assay type: physicochemical
# Conditions: mixtures in 10 mM phosphate buffer pH 6.4
# From the text: All exendin-4/PTD mixtures were clear.
sequence,measurement,value
"MIIFRLLAYHKK [TCTP-PTD 13M3, substitution S9Y of TCTP-PTD 13M2]",cloudiness (turbidity) and precipitation,did not form any precipitations
